The values that follow are results of earlier work, collected in US8088413B2, “Methods for improved cryo-chemotherapy tissue ablation” (Nuvue Therapeutics, Inc., priority 2004, dated 2012).

The test system of data set [1] is human prostate cancer cell line, PC3. To be noted: free drug given 2 to 4 days prior to freezing; drug and cryo levels individually ineffective.
A further data set deals with human prostate cancer. To be noted: pretreatment; temperatures close to 0° C.

On to `O=c1[nH]cc(F)c(=O)[nH]1` [5-fluorouracil (5-FU), 5-fluorouracil], for which the “kill efficacy of cryoinjury” value in data set [1] is on record as “increased kill efficacy”. Tumor Necrosis Factor-alpha: the effect on cryoinjury result in the data set on human prostate cancer is “augments the cryoinjury”.
